Assay results as given in article PMC5460133 (Scientific Reports, 2017).

How the values were obtained:
Sb-PDE [1] = system: T1, Sb-PDE; assay type: biochemical, Sphingobium sp. TCM1
T1 construct: native enzyme purified from Sphingobium sp; TCM1; signal peptide removed; mature 413 residues, N-terminus EFVTQSDQRPP (residues 29-39 of 441); homodimer, 116 kDa; zinc-containing; PHP superfamily

Sb-PDE [2] = system: T1, Sb-PDE; assay type: biochemical, Sphingobium sp. TCM1; remark: listed apart in the source

| Compound | Km (Sb-PDE [1]) | K i (Sb-PDE [2]) |
| --- | --- | --- |
| O=[N+]([O-])c1ccc(OP(=O)(O)O)cc1 [pNPP] | 1.5 ± 0.2 mM |  |
| O=[N+]([O-])c1ccc(OP(=O)(O)Oc2ccc([N+](=O)[O-])cc2)cc1 [BpNPP] | 6.1 ± 1.2 mM | 12.5 ± 3.1 mM |
